Results on eleven molecules are retold here after ChEMBL document CHEMBL1944634, “Design, synthesis and biological evaluation of 6-substituted aminocarbonyl benzimidazole derivatives as nonpeptidic angiotensin II AT1 receptor antagonists” (Eur J Med Chem, 2012).

SMILES strings stand for the structures. Numbering of substitutions follows the chain as printed. Converted amounts (≈) assume the structure as drawn.

Series [1] concerns the target T1, Type-1 angiotensin II receptor (Oryctolagus cuniculus, UniProt P34976).
T1 sequence (P34976 whole entry): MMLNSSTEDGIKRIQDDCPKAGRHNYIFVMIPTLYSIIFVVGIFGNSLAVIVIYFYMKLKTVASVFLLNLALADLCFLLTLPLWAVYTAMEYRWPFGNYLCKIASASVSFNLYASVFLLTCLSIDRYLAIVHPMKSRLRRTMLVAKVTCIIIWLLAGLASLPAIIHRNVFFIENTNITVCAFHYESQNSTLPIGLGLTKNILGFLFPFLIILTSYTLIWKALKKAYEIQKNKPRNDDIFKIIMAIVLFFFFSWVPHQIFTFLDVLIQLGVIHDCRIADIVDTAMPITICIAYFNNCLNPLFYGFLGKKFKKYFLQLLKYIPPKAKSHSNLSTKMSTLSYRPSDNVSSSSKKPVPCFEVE
In words: Antagonist activity at angiotensin 2 AT1 receptor in Japanese White rabbits thoracic aorta assessed as inhibition of angiotensin II-induced contraction after 60 mins. The conditions noted are these: read-out: pA2 (converted).

The nature of series [2]: Toxicity against Photobacterium phosphoreum T3 mutant assessed as inhibition of luminescence after 15 mins by microtox test. To be noted: Photobacterium phosphoreum T3 mutant (luminescent bacteria), read-out: LC50. In kind it is organism-based.
Series [3] concerns the target T2, Type-2 angiotensin II receptor (Homo sapiens, UniProt P50052).
T2 sequence (P50052 whole entry): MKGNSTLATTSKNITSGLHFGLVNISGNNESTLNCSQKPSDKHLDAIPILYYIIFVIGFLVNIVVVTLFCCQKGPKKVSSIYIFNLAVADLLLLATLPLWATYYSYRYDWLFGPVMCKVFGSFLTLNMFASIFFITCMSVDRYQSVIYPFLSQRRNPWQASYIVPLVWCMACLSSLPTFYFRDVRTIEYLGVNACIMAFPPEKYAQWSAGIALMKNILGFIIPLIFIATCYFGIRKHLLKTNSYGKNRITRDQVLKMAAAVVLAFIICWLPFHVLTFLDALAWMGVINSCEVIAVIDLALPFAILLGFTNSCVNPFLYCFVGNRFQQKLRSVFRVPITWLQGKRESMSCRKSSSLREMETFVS
In words: Displacement of [125I]Sar1 Ile8-Ang 2 from angiotensin 2 AT2 receptor after 180 mins by gamma counting. On the technique in general: Displacement assays read how much labelled ligand stays bound in the presence of the test substance.

Series [4] addresses T3, Type-1 angiotensin II receptor (Homo sapiens, UniProt P30556).
T3 sequence (P30556 whole entry): T1 sequence (P34976 whole entry) with M2I, A49V, V254I, V270I, H272R, K311R, S349T, V353A
Nature of the series: Displacement of [125I]Sar1 Ile8-Ang 2 from angiotensin 2 AT1 receptor after 180 mins by gamma counting.

The target of series [5] is T4, Type-1 angiotensin II receptor (Homo sapiens) (UniProt P30556).
T4 sequence (whole entry): T1 sequence (P34976 whole entry) with M2I, A49V, V254I, V270I, H272R, K311R, S349T, V353A
Nature of the series: Ratio of losartan IC50 to compound IC50 for angiotensin 2 AT1 receptor.

A further series deals with Rattus norvegicus. In words: Antihypertensive activity in spontaneously hypertensive rat assessed as decrease in blood pressure at 10 mg/kg, po by tail plethysmography. In kind it is functional.

For orientation: IC50 means the concentration that inhibits the measured activity by half. A lower IC50 goes with greater potency in that assay. Regarding `CCCc1nc2c(C)cc(C(=O)NCc3ccc(OC)cc3)cc2n1Cc1ccc(-c2ccccc2C(=O)O)cc1`, the Kb in series [1] is 4.79 nM. Moreover, the EC50 (luminescence inhibition) at 0.25 h in series [2] is above 100 µg/mL. Further, the half-inhibitory concentration (IC50) in series [3] stood at 3600 nM; in series [4], 4.3 nM.

In the case of `CCCc1nc2c(C)cc(C(=O)NCc3cccc(OC)c3)cc2n1Cc1ccc(-c2ccccc2C(=O)O)cc1`, the EC50 (luminescence inhibition) at 0.25 h in series [2] is above 100 µg/mL. Besides, the figures for the IC50 in series [3] and in series [4] were above 10000 nM and 326 nM, respectively.

`CCCc1nc2c(C)cc(C(=O)NCCc3ccc(OC)c(OC)c3)cc2n1Cc1ccc(-c2ccccc2C(=O)O)cc1`: the EC50 (luminescence inhibition) at 0.25 h in series [2] was above 100 µg/mL. Further, the values for the IC50 in series [3] and in series [4] were 1200 nM and 57.6 nM, respectively.

`CCCc1nc2c(C)cc(C(=O)NCCc3cccc(OC)c3)cc2n1Cc1ccc(-c2ccccc2C(=O)O)cc1`: the EC50 (luminescence inhibition) at 0.25 h in series [2] came out at 72 µg/mL (≈ 128 µM). The concentration for half-maximal inhibition (IC50) in series [3] is above 10000 nM; in series [4], 30.8 nM.

Turning to `CCCc1nc2c(C)cc(C(=O)NCCc3ccc(OC)cc3)cc2n1Cc1ccc(-c2ccccc2C(=O)O)cc1`, in series [2], the EC50 (luminescence inhibition) at 0.25 h was above 100 µg/mL. In addition, the figures for the half-inhibitory concentration (IC50) in series [3] and in series [4] were 1500 nM and 214 nM, respectively.

Take `CCCc1nc2c(C)cc(C(=O)NCCc3ccccc3F)cc2n1Cc1ccc(-c2ccccc2C(=O)O)cc1`: in series [2], the EC50 (luminescence inhibition) at 0.25 h is 65 µg/mL (≈ 118 µM). For the same molecule, the half-inhibitory concentration (IC50) in series [4] was determined as 106 nM.

As to `CCCc1nc2c(C)cc(C(=O)NCc3ccc(OC)c(OC)c3)cc2n1Cc1ccc(-c2ccccc2C(=O)O)cc1`, in series [2], the EC50 (luminescence inhibition) at 0.25 h was above 100 µg/mL. For the same molecule, the IC50 in series [3] was above 10000 nM; in series [4], 30.6 nM.

Consider `CCCc1nc2c(C)cc(C(=O)NCCc3cc(OC)ccc3OC)cc2n1Cc1ccc(-c2ccccc2C(=O)O)cc1`, for which, in series [5], the Ratio IC50 amounted to 12. In addition, the Kb in series [1] is 3.16 nM. Besides, the EC50 (luminescence inhibition) at 0.25 h in series [2] is above 100 µg/mL. Further, the IC50 in series [3] is 1400 nM; in series [4] it was 1.3 nM. For the same molecule, in the series with Rattus norvegicus, the Activity was above 30 mmHg.

Consider `CCCc1nc2c(C)cc(C(=O)NCc3ccccc3OC)cc2n1Cc1ccc(-c2ccccc2C(=O)O)cc1`, for which the Kb in series [1] is 6.92 nM. Besides, in series [2], the EC50 (luminescence inhibition) at 0.25 h was above 100 µg/mL. Besides, the IC50 in series [3] turned out to be 1100 nM; in series [4] it was 2.4 nM.

Take `CCCc1nc2c(C)cc(C(=O)NCc3ccccc3)cc2n1Cc1ccc(-c2ccccc2C(=O)O)cc1`: the EC50 (luminescence inhibition) at 0.25 h in series [2] was found to be 78 µg/mL (≈ 151 µM). In series [4], the concentration for half-maximal inhibition (IC50) was determined as 52.5 nM.

Consider `CCCc1nc2c(C)cc(C(=O)NCCc3ccc(F)cc3)cc2n1Cc1ccc(-c2ccccc2C(=O)O)cc1`, for which the EC50 (luminescence inhibition) at 0.25 h in series [2] came to 89 µg/mL (≈ 162 µM). Moreover, the IC50 in series [3] is 1300 nM; in series [4] it was 198 nM.
